The values below are quoted from earlier work in patent US8808745B2 (Egalet Ltd., priority 2001, dated 2014).

For this series the following is noted: single dose of 10 mg oral morphine, plain tablet composition.

Consider `CN1CC[C@]23c4c5ccc(O)c4O[C@H]2[C@@H](O)C=C[C@H]3[C@H]1C5` [morphine], for which the “average duration of action” value was 4 to 5 h.
